# Values of other authors, collected in patent publication US12569529B2, “Natural combination products and methods for regulation of kidney and excretory system function” (Pure Care Pro LLC, priority 2018, dated 2026).
# Columns and labels:
# [1] = test system: kidney proximal tubular cells; details: kidney proximal tubular cells in culture
Molecule,ADMA levels (patients with CKD),cisplatin-induced reactive oxygen species (ROS) [1],cell viability ([1]; cisplatin)
vitamin E,reductions,–,–
Cc1c(C)c2c(c(C)c1O)CC[C@@](C)(CCC[C@H](C)CCC[C@H](C)CCCC(C)C)O2 [α-tocopherol],–,decreased,increased
